US20230136600A1, “Method and device for screening antigen epitope polypeptide” (priority 2020, published 2023)

Test system: Balb/c mice
Test: Polypeptide chip-based vaccine immunogenicity scoring system
Assay type: in vivo
Set-up: key to A2: whether the 95 percentile of the last sampling is increased compared with the end point: Y = rise; N = no rise
Settings: Embodiment III, polypeptide-KLH; for A1: difference between a highest median and a D 0 median (95 percentile) / A2: whether the 95 percentile of the last sampling is increased compared with the end point: Mix1-10; for Total single peptide: A*3 + B*2 + C*1; for A: 95 percentile grouping number score / B: Mouse performance score: total score = 5; for C1: #A timing-sequence response peptide fragment set / C2: #B vaccine specificity peptide fragment set / C3: Intersection of A and B / C4: Percentage of the intersection in set B / C: Timing-sequence response and specificity score: value of the whole mix
Method: Data distribution and characteristics thereof are analyzed based on a) and b), a polypeptide chip-based vaccine immunogenicity scoring system (referring to Table 7) is designed.
10 combinations are evaluated by the polypeptide chip-based vaccine immunogenicity scoring system. An evaluation method is consistent with that in Embodiment II. Evaluation results are show in the table below.
This embodiment is consistent with Embodiment II. Each combination is evaluated by the polypeptide chip-based vaccine immunogenicity scoring system. Evaluation results are show in the table below.

Sequence	B1: D 0-D 14 95 percentile rise in the number of mice	B2: D 0-D 21 95 percentile rise in the number of mice	B3: D 14-D 21 95 percentile rise in the number of mice	B4: D 21-D 28 95 percentile rise in the number of mice	A1: difference between a highest median and a D 0 median (95 percentile)	A2: whether the 95 percentile of the last sampling is increased compared with the end point	Total single peptide	A: 95 percentile grouping number score	B: Mouse performance score	C1: #A timing-sequence response peptide fragment set	C2: #B vaccine specificity peptide fragment set	C3: Intersection of A and B	C4: Percentage of the intersection in set B	C: Timing-sequence response and specificity score
EVFAQVKQIY (SARS-CoV-2) [SEQ ID NO:13]	3	3	0	2	0.08	Y	14.8	3.5	1.9	1212	389	1	0.257	0.5
YEGNSPFH [SEQ ID NO:18]	3	2	0	2	0.06	Y	9.9	2	1.7	1212	389	1	0.257	0.5
KRISNCVADY [SEQ ID NO:8]	2	3	2	1	0.03	N	7.1	1	1.8	230	251	1	0.398	0.5
QELGKYEQY (SARS-CoV-2) [SEQ ID NO:38]	3	3	2	1	0.10	Y	18.2	4.5	2.1	352	541	1	0.185	0.5
NVAKSEFDRDAA [SEQ ID NO:26]	3	3	1	0	0.06	N	6.9	1	1.7	352	541	1	0.185	0.5
PLQPELDSFKEE [SEQ ID NO:37]	3	2	1	1	0.09	Y	15.9	4	1.7	230	251	1	0.398	0.5
KEIDRLNEV [SEQ ID NO:12]	3	3	1	0	0.10	N	15.9	4	1.7	257	682	3	0.440	0.5
LPFNDGVYF (SARS-CoV-2) [SEQ ID NO:14]	3	2	2	3	0.09	Y	17.1	4	2.3	133	431	1	0.232	0.5
YYKKDNSYF (SARS-CoV-2) [SEQ ID NO:25]	2	3	2	1	0.06	N	9.1	1.5	1.8	823	398	7	1.759	1
RGGSYTNDKAC (SARS-CoV-2) [SEQ ID NO:2]	3	3	2	0	0.14	N	18.3	4.5	1.9	288	268	4	1.493	1
